According to patent publication US11319299B2, “Substituted carboxamides as inhibitors of WDR5 protein-protein binding” (PROPELLON THERAPEUTICS INC., priority 2016, dated 2022):

Molecular target: WDR5 (Homo sapiens (Human), UniProt P61964)
Assay: Surface Plasmon Resonance (SPR) assay, KD and residence time
Format: binding
Conditions: surface plasmon resonance (SPR); read-out: WDR5 binding affinity (KD)

SMILES | Kd [nM]
C[C@@H]1CN(c2ncc(-c3cc(NC(=O)c4c[nH]c(=O)cc4C(F)(F)F)c(N4CCC(N(C)C)C4)cc3F)cn2)C[C@H](C)O1 (stereo in doubt) [Example 417, N-[4-fluoro-2-[(3S)-3-(dimethylamino)pyrrolidin-1-yl]-5-[2-[(2R,6S)-2,6-dimethylmorpholin-4-yl]pyrimidin-5-yl]phenyl]-6-oxo-4-(trifluoromethyl)-1H-pyridine-3-carboxamide] | 1.41
CC1CN(c2cc(F)c(-c3ccc(N4C[C@@H](C)O[C@@H](C)C4)nc3)cc2NC(=O)c2ccc(F)cc2C(F)(F)F)CCN1C (stereo in doubt) [Example 423, 4-fluoro-N-[4-fluoro-5-[6-[(2R,6S)-2,6-dimethylmorpholin-4-yl]pyridin-3-yl]-2-[(3R)-3,4-dimethylpiperazin-1-yl]phenyl]-2-(trifluoromethyl)benzamide] | 1.93
CC1CN(c2cc(F)c(-c3cnc(N4CCC(C)(O)CC4)nc3)cc2NC(=O)c2c[nH]c(=O)cc2C(F)(F)F)CCN1C (stereo in doubt) [Example 424, N-[4-fluoro-5-[2-(4-hydroxy-4-methylpiperidin-1-yl)pyrimidin-5-yl]-2-[(3R)-3,4-dimethylpiperazin-1-yl]phenyl]-6-oxo-4-(trifluoromethyl)-1H-pyridine-3-carboxamide] | 0.609
C[C@@H]1CN(c2ccc(-c3cc(NC(=O)c4c[nH]c(=O)cc4C(F)(F)F)c(N4CCN(C)[C@H](C)C4)cc3F)cn2)CCO1 (stereo in doubt) [Example 433, N-[4-fluoro-2-[(3R)-3,4-dimethylpiperazin-1-yl]-5-[6-[(2R)-2-methylmorpholin-4-yl]pyridin-3-yl]phenyl]-6-oxo-4-(trifluoromethyl)-1H-pyridine-3-carboxamide] | 2.84
CC1CN(c2cc(F)c(-c3cnc(N4CCN(C5CC5)CC4)nc3)cc2NC(=O)c2ccc(F)cc2C(F)(F)F)CCN1C (stereo in doubt) [Example 435, N-[5-[2-(4-cyclopropylpiperazin-1-yl)pyrimidin-5-yl]-4-fluoro-2-[(3R)-3,4-dimethylpiperazin-1-yl]phenyl]-4-fluoro-2-(trifluoromethyl)benzamide] | 1.47
CC1CN(c2cc(F)c(-c3ccc(N4CCOCC4)c(F)c3)cc2NC(=O)c2c[nH]c(=O)cc2C(F)F)CCN1C (stereo in doubt) [Example 448, 4-(difluoromethyl)-N-[4-fluoro-5-(3-fluoro-4-morpholin-4-ylphenyl)-2-[(3R)-3,4-dimethylpiperazin-1-yl]phenyl]-6-oxo-1H-pyridine-3-carboxamide] | 1.01
C[C@@H]1CN(c2ncc(-c3cc(NC(=O)c4cn(C)c(=O)cc4C(F)(F)F)c(N4CCN(C)[C@H](C)C4)cc3F)cn2)CCO1 (stereo in doubt) [Example 450, N-[4-fluoro-2-[(3R)-3,4-dimethylpiperazin-1-yl]-5-[2-[(2R)-2-methylmorpholin-4-yl]pyrimidin-5-yl]phenyl]-1-methyl-6-oxo-4-(trifluoromethyl)pyridine-3-carboxamide] | 1.02
CC1CN(c2ncc(-c3cc(NC(=O)c4ccc(F)cc4C(F)(F)F)c(N4C[C@@H](C)N(C)[C@@H](C)C4)cc3F)cn2)CCO1 (stereo in doubt) [Example 453, 4-fluoro-N-[4-fluoro-5-[2-[(2R)-2-methylmorpholin-4-yl]pyrimidin-5-yl]-2-[(3S,5R)-3,4,5-trimethylpiperazin-1-yl]phenyl]-2-(trifluoromethyl)benzamide] | 0.822
O=C(Nc1cc(-c2cnc(N3CCOCC3)nc2)c(F)cc1N1C[C@H]2CCN[C@H]2C1)c1c[nH]c(=O)cc1C(F)(F)F (stereo in doubt) [Example 463, N-[4-fluoro-5-(2-morpholin-4-ylpyrimidin-5-yl)-2-[(3aR,6aR)-2,3,3a,4,6,6a-hexahydro-1H-pyrrolo[2,3-c]pyrrol-5-yl]phenyl]-6-oxo-4-(trifluoromethyl)-1H-pyridine-3-carboxamide] | 168
CC1COCCN1c1ncc(-c2cc(NC(=O)c3cn(C)c(=O)cc3C(F)F)c(N3C[C@@H](C)N(C)[C@@H](C)C3)cc2F)cn1 (stereo in doubt) [Example 475, 4-(difluoromethyl)-N-[4-fluoro-5-[2-[(3R)-3-methylmorpholin-4-yl]pyrimidin-5-yl]-2-[(3S,5R)-3,4,5-trimethylpiperazin-1-yl]phenyl]-1-methyl-6-oxopyridine-3-carboxamide] | 3.52
CCCN1CC[C@@H]2CN(c3cc(F)c(-c4cnc(N5CCOCC5)nc4)cc3NC(=O)c3c[nH]c(=O)cc3C(F)(F)F)C[C@@H]21 (stereo in doubt) [Example 476, N-[4-fluoro-5-(2-morpholin-4-ylpyrimidin-5-yl)-2-[(3aR,6aR)-1-propyl-2,3,3a,4,6,6a-hexahydropyrrolo[2,3-c]pyrrol-5-yl]phenyl]-6-oxo-4-(trifluoromethyl)-1H-pyridine-3-carboxamide] | 9.71
CN1CC[C@@H]2CN(c3cc(F)c(-c4cnc(N5CCOCC5)nc4)cc3NC(=O)c3c[nH]c(=O)cc3C(F)(F)F)C[C@@H]21 (stereo in doubt) [Example 477, N-[4-fluoro-5-(2-morpholin-4-ylpyrimidin-5-yl)-2-[(3aR,6aR)-1-methyl-2,3,3a,4,6,6a-hexahydropyrrolo[2,3-c]pyrrol-5-yl]phenyl]-6-oxo-4-(trifluoromethyl)-1H-pyridine-3-carboxamide] | 24.2
CC1CN(c2cc(F)c(-c3ccc(N4CCOCC4)c(F)c3)cc2NC(=O)c2cn(C)c(=O)cc2C(F)F)CCN1C (stereo in doubt) [Example 478, 4-(difluoromethyl)-N-[4-fluoro-5-(3-fluoro-4-morpholin-4-ylphenyl)-2-[(3R)-3,4-dimethylpiperazin-1-yl]phenyl]-1-methyl-6-oxopyridine-3-carboxamide] | 5.32
CC1CN(c2cc(F)c(-c3cnc(N4CCOCC4)nc3)cc2NC(=O)c2c[nH]c(=O)c(C(F)(F)F)c2)CCN1C (stereo in doubt) [Example 495, N-[4-fluoro-5-(2-morpholin-4-ylpyrimidin-5-yl)-2-[(3R)-3,4-dimethylpiperazin-1-yl]phenyl]-6-oxo-5-(trifluoromethyl)-1H-pyridine-3-carboxamide] | 24.9
C[C@@H]1CN(c2ccc(-c3cc(NC(=O)c4c[nH]c(=O)cc4C(F)F)c(N4CCN(C)[C@H](C)C4)cc3F)cn2)CCO1 (stereo in doubt) [Example 507, 4-(difluoromethyl)-N-[4-fluoro-2-[(3R)-3,4-dimethylpiperazin-1-yl]-5-[6-[(2R)-2-methylmorpholin-4-yl]pyridin-3-yl]phenyl]-6-oxo-1H-pyridine-3-carboxamide] | 1.76
CC1CN(c2ccc(-c3cc(NC(=O)c4c[nH]c(=O)cc4C(F)F)c(N4C[C@@H](C)N(C)[C@@H](C)C4)cc3F)cn2)CCO1 (stereo in doubt) [Example 510, 4-(difluoromethyl)-N-[4-fluoro-5-[6-[(2R)-2-methylmorpholin-4-yl]pyridin-3-yl]-2-[(3S,5R)-3,4,5-trimethylpiperazin-1-yl]phenyl]-6-oxo-1H-pyridine-3-carboxamide] | 0.623
CC1CN(c2ccc(-c3cc(NC(=O)c4cn(C)c(=O)cc4C(F)F)c(N4C[C@@H](C)N(C)[C@@H](C)C4)cc3F)cn2)CCO1 (stereo in doubt) [Example 517, 4-(Difluoromethyl)-N-[4-fluoro-5-[6-[(2R)-2-methylmorpholin-4-yl]pyridin-3-yl]-2-[(3S,5R)-3,4,5-trimethylpiperazin-1-yl]phenyl]-1-methyl-6-oxopyridine-3-carboxamide] | 5.97
C[C@@H]1CN(c2ccc(-c3cc(NC(=O)c4cn(C)c(=O)cc4C(F)F)c(N4CCN(C)[C@H](C)C4)cc3F)cn2)CCO1 (stereo in doubt) [Example 519, 4-(difluoromethyl)-N-[4-fluoro-2-[(3R)-3,4-dimethylpiperazin-1-yl]-5-[6-[(2R)-2-methylmorpholin-4-yl]pyridin-3-yl]phenyl]-1-methyl-6-oxopyridine-3-carboxamide] | 3.39
CC1CN(c2cc(F)c(-c3ccc(N4CCNCC4)nc3)cc2NC(=O)c2ccc(F)cc2C(F)(F)F)CCN1C (stereo in doubt) [Example 530, 4-fluoro-N-[4-fluoro-5-(6-piperazin-1-ylpyridin-3-yl)-2-[(3R)-3,4-dimethylpiperazin-1-yl]phenyl]-2-(trifluoromethyl)benzamide] | 2.16
CC1CN(c2cc(F)c(-c3ccc(F)c(C(N)=O)c3)cc2NC(=O)c2ccc(F)cc2C(F)(F)F)CCN1C (stereo in doubt) [Example 554, 2-fluoro-5-[2-fluoro-5-[[4-fluoro-2-(trifluoromethyl)benzoyl]amino]-4-[(3R)-3,4-dimethylpiperazin-1-yl]phenyl]benzamide] | 5.3
CC1CN(c2cc(F)c(-c3ccc(C(N)=O)c(F)c3)cc2NC(=O)c2ccc(F)cc2C(F)(F)F)CCN1C (stereo in doubt) [Example 555, 2-fluoro-4-[2-fluoro-5-[[4-fluoro-2-(trifluoromethyl)benzoyl]amino]-4-[(3R)-3,4-dimethylpiperazin-1-yl]phenyl]benzamide] | 2.94
CC1CN(c2cc(F)c(-c3cnc(N4CCN(C(C)(C)C)CC4)nc3)cc2NC(=O)c2ccc(F)cc2C(F)(F)F)CCN1C (stereo in doubt) [Example 557, N-[5-[2-(4-tert-butylpiperazin-1-yl)pyrimidin-5-yl]-4-fluoro-2-[(3R)-3,4-dimethylpiperazin-1-yl]phenyl]-4-fluoro-2-(trifluoromethyl)benzamide] | 1.09
CC1CN(c2cc(F)c(-c3cnc(N4CCOC(C)(C)C4)nc3)cc2NC(=O)c2ccc(F)cc2C(F)(F)F)CCN1C (stereo in doubt) [Example 558, N-[5-[2-(2,2-dimethylmorpholin-4-yl)pyrimidin-5-yl]-4-fluoro-2-[(3R)-3,4-dimethylpiperazin-1-yl]phenyl]-4-fluoro-2-(trifluoromethyl)benzamide] | 3.78
CC1CN(c2cc(F)c(-c3ccc(C(N)=O)c(F)c3)cc2NC(=O)c2c[nH]c(=O)cc2C(F)F)CCN1C (stereo in doubt) [Example 595, N-[5-(4-carbamoyl-3-fluorophenyl)-4-fluoro-2-[(3R)-3,4-dimethylpiperazin-1-yl]phenyl]-4-(difluoromethyl)-6-oxo-1H-pyridine-3-carboxamide] | 1.18
